Measured values published in patent US20090054507A1, “CONTROL OF MALIGNANT CELLS BY KINASE INHIBITION” (CLEVELAND STATE UNIVERSITY, priority 2006, published 2009).

Legend:
[1] = system: tumors of ACHN cells; experiment: Murine xenograft of ACHN cells, tumor volume; assay type: in vivo, mice; conditions: DMAT at effective dosage levels (in DMSO) per animal per day, 59 days
Method: FIG. 94 illustrates the effect of administration of DMAT as compared to a control over a period of 59 days. FIG. 94 is a graph of a murine xenograft treated with DMAT, compared to a control. Mice with tumors of ACHN cells were treated with DMAT at effective dosage levels (in DMSO) per animal per day. The daily animal weight was averaged at 32.5 g at the start of treatment. Tumors were measured daily and tumor volumes were calculated based upon a prolate spheroid model. FIG. 94 illustrates the significant benefits of treatment with DMAT (circles) as compared to the control (squares). […] The differences in tumor volume between control cells and those treated with DMAT, as described herein, are striking.

[2] = system: WM-164 xenografts; experiment: In vivo therapy of WM-164 xenografts, tumor volume; design: species or system mice
Excerpt: (§1) Creation of the xenografts MCF-7, SW-480 and WM-164. Immunodeficient male and female athymic nude nu/nu mice were used, provided and housed by Dr. Lindner, DJ from Taussig Cancer Center, Cleveland Clinic and Case Western Reserve University. Mice were checked every day. Mice were housed in filtered air flow cabinets with autoclaved bedding at a density of 5 mice/cage. They were fed autoclaved Purina Lab Rodent Chow® 5010 and HCl-acidified distilled water ad libitum and were placed in rooms with controlled temperature, humidity and 12-hr light-dark cycles. Procedures involving animals and their care were conducted in conformity with the institutional guidelines that are in compliance with national and international laws and policies (EEC Council Directive 86/609, OJL 358, Dec. 1, 1987, and the National Institutes of Health Guide for the Care and Use of Laboratory, Animals, NIH Publication 85-23, 1985).
(§2) For engraftment, cells in cell culture media were injected. […] Cells were counted with a hemacytometer using Trypan blue (only live cells were counted). […]
In vivo therapy with DMAT of WM-164 xenografts. […] Tumor diameters were measured using a caliper and tumor volume was calculated using the prolate-spheroid formula. […]

[3] = system: WM-164 cells; experiment: Proliferation assay in vitro, WM-164; assay type: cell-based, human; conditions: for cell counts: four days
Excerpt: Viability (proliferation) assay, Trypan blue exclusion. Cells were counted using a Neubauer hemacytometer.

[4] = system: MCF-7 cells; experiment: Anchorage independence in soft agar, MCF-7; assay type: cell-based, human; conditions: DMAT 10 μM, one week
[5] = system: SW-480 xenografts; experiment: In vivo therapy of SW-480 xenografts, tumor volume; design: species or system mice
Excerpt: as §1, §2
In vivo therapy with DMAT of SW-480 xenografts. […] Tumor diameters were measured using a caliper and tumor volume was calculated using the prolate-spheroid formula. […]

[6] = small tumors remained at the end of the treatment

CN(C)c1nc2c(Br)c(Br)c(Br)c(Br)c2[nH]1 [DMAT, 2-dimethylamino-4,5,6,7-tetrabromo-1H-benzimidazole]
tumor volume [1]: proliferation arrest in vivo for large tumors and tumor ablation in small tumors | tumor volume ([2]; DMAT 10 mg/kg (in DMSO) per day, fourteen days, control about 50 to about 1000 mm^3): only a slight increase in tumor volume | response of xenograft tumors to treatment (summary) [2, 6]: significant reduction in tumor volume | sensitivity of proliferation to DMAT compared with MCF-7 and SW-480 [3]: more resistant | cell counts ([3]; 10 μM DMAT): cell counts between those of the control and those of the WM-164 cells treated with 20 μM | cell counts ([3]; 20 μM DMAT): lowest cell counts | colonies in soft agar [4]: much smaller and fewer colonies | tumor volume ([5]; DMAT 40 mg/kg (in DMSO) per day, thirteen days, control about 260 to about 1800 mm^3): only a minor increase in tumor volume | response of xenograft tumors to treatment (summary) [5, 6]: significant reduction in tumor volume
